Results taken from US20240382518A1, “PHARMACEUTICAL COMPOSITION AND HEALTH FUNCTIONAL FOOD FOR PREVENTION OR TREATMENT OF OSTEOARTHRITIS” (SEOUL NATIONAL UNIVERSITY R&DB FOUNDATION, priority 2021, published 2024).

Key:
SEPHS1-iCKO mice = assay: post-traumatic osteoarthritis (DMM surgery) in SEPHS1-iCKO mice with NAC or selenate in drinking water; type: in vivo, mouse; settings: for osteoarthritis phenotype of SEPHS1-iCKO mice: drinking water with NAC 1 mg/mL or sodium selenate 1 ppm, from 5 days prior to DMM
Description: Selenate supplementation or NAC treatment was performed by supplying mice with drinking water in which sodium selenate (1 ppm) or NAC (1 mg/mL) was dissolved. Further, to Sephs1-iCKO mice, NAC, selenate or vehicle was supplemented 5 days prior to DMM surgery.
Posttraumatic osteoarthritis (OA) was induced by executing DMM surgery in 12-week-old (WT C57BL/6) or 13-week-old (SEPHS1^fl/fl or SEPHS1^fl/fl; Col2a1-CreER^T2) mice, and mice (sham) without DMM after incision were used as a control. These mice were sacrificed 6 or 8 weeks after DMM or sham surgery.
As an aging-associated OA model, 24-month-old C57BL/6 male mice were used for histological analysis and 3-month-old mice were used as a control. The extent of cartilage degeneration in the knee joint was assessed by safranin-O staining and scored using the OARSI grading system.

[1] = tested on: SEPHS1 knockout mouse-derived chondrocytes; assay: DNA damage (γ-H2AX foci) in SEPHS1 knockout mouse-derived chondrocytes; type: cell-based; settings: after NAC treatment
Description: (§1) For primary culture of mouse articular chondrocytes, cells derived from femoral condyle and tibial plateaus of 5-day-old ICR mice were isolated. Chondrocytes were cultured in DMEM medium containing 10% FBS (Gibco), 100 units/mL of penicillin, and 100 μg/mL of streptomycin. After 2 days, cells were treated according to the purpose of each experiment. The cultured cells were maintained at 37° C. under 5% CO2 and 3% O2 conditions. In addition, DNA damage and senescence-associated β-galactosidase (SA-β-gal) activity were measured to determine the relationship between SEPHS1 deficiency and cellular senescence. […] In order to determine whether the DNA damage and the increase in SA-β-gal activity caused by SEPHS1 inhibition were caused by the accumulation of ROS, SEPHS1 knockout mouse-derived chondrocytes were additionally treated with N-acetylcysteine (NAC), followed by repeatedly performing the same experiment. As a result, it was confirmed that DNA damage caused by SEPHS1 inhibition and the increase in SA-β-gal activity were reduced after NAC treatment (FIGS. 3P to 3S).

[2] = tested on: SEPHS1 knockout mouse-derived chondrocytes; assay: senescence-associated β-galactosidase (SA-β-gal) activity in SEPHS1 knockout mouse-derived chondrocytes; type: cell-based; settings: after NAC treatment
Description: as §1

Structure (SMILES) | osteoarthritis phenotype of SEPHS1-iCKO mice (SEPHS1-iCKO mice) | DNA damage caused by SEPHS1 inhibition [1] | weight imbalance between the operated legs and the other legs without operation (SEPHS1-iCKO mice; SEPHS1-iCKO mice, NAC 1 mg/mL in drinking water) | increase in SA-β-gal activity [2]
O=[Se](=O)([O-])[O-].[Na+].[Na+] [selenate, sodium selenate] | did not restore | – | – | –
CC(=O)N[C@@H](CS)C(=O)O [NAC, N-acetylcysteine] | alleviated | reduced | alleviated | reduced
